Toxic doses and inconclusive results are not listed.

The assay relates to L1210 leukemia ip in BDF1 mice, survival T/C. Briefly: NCI In Vivo Anticancer Drug Screen. Data for tumor model L1210 Leukemia (intraperitoneal) in B6D2F1 (BDF1) mice. As to conditions: endpoint: mean survival time, higher = longer survival. Summed up:
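Read-out is survival time, reported as the treated-group measurement over the vehicle-control measurement.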

Setting [1] is: dose: 100.0 mg/kg/injection, schedule: Q01DX001 (ip), vehicle: saline.
[2] abbreviates: dose: 200.0 mg/kg/injection, schedule: Q01DX001 (ip), vehicle: saline.

For the compound `O=NN(CCCl)C(=O)Nc1ccc2c(c1)CCCC2`, the T/C is, setting by setting: (dose: 31.0 mg/kg/injection, schedule: Q01DX001 (ip), vehicle: carboxymethylcellulose (CMC)) 124 % of control; (dose: 84.0 mg/kg/injection, schedule: Q01DX001 (ip), vehicle: carboxymethylcellulose (CMC)) 186 % of control; (dose: 119.0 mg/kg/injection, schedule: Q01DX001 (ip), vehicle: carboxymethylcellulose (CMC)) 231 % of control; (dose: 125.0 mg/kg/injection, schedule: Q01DX001 (ip), vehicle: carboxymethylcellulose (CMC)) 188 % of control; (dose: 178.0 mg/kg/injection, schedule: Q01DX001 (ip), vehicle: carboxymethylcellulose (CMC)) 216 % of control; (dose: 187.0 mg/kg/injection, schedule: Q01DX001 (ip), vehicle: carboxymethylcellulose (CMC)) 215 % of control. The T/C by setting is: (dose: 238.0 mg/kg/injection, schedule: Q01DX001 (ip), vehicle: carboxymethylcellulose (CMC)) 223 % of control; (dose: 250.0 mg/kg/injection, schedule: Q01DX001 (ip), vehicle: carboxymethylcellulose (CMC)) 89 % of control; (dose: 357.0 mg/kg/injection, schedule: Q01DX001 (ip), vehicle: carboxymethylcellulose (CMC)) 101 % of control.

As for `CSc1nnc(-c2cccs2)s1`, the T/C (dose: 100.0 mg/kg/injection, schedule: Q04DX003 (ip), vehicle: Klucel (hydroxypropylcellulose) (HPC)) is 98 % of control.

`Nc1ccc(CCCNc2c(N)nc(N)nc2-c2ccccc2)cc1`: the T/C is, setting by setting: (dose: 50.0 mg/kg/injection, schedule: Q01DX001 (ip), vehicle: saline) 100 % of control; under setting [1], 103 % of control; under setting [2], 94 % of control.

In the case of `CC(C)CCNC(=O)NS(=O)(=O)c1ccc(Cl)cc1`, the T/C by setting is: (dose: 100.0 mg/kg/injection, schedule: Q04DX003 (ip), vehicle: saline with Tween-80) 107 % of control; (dose: 200.0 mg/kg/injection, schedule: Q04DX003 (ip), vehicle: saline with Tween-80) 97 % of control; (dose: 400.0 mg/kg/injection, schedule: Q04DX003 (ip), vehicle: saline with Tween-80) 100 % of control.

For `C/C(=N/NC(N)=O)C1CC2CCC1C2` (stereo not given), the T/C is, setting by setting: under setting [1], 98 % of control; (dose: 100.0 mg/kg/injection, schedule: Q01DX009 (ip), vehicle: gum acacia) 102 % of control; (dose: 100.0 mg/kg/injection, schedule: Q04DX003 (ip), vehicle: gum acacia) 93 % of control; under setting [2], 101 % of control; (dose: 200.0 mg/kg/injection, schedule: Q01DX009 (ip), vehicle: gum acacia) 94 % of control; (dose: 200.0 mg/kg/injection, schedule: Q04DX003 (ip), vehicle: gum acacia) 95 % of control. Besides, the T/C (dose: 400.0 mg/kg/injection, schedule: Q04DX003 (ip), vehicle: gum acacia) is 90 % of control.

`Cc1ccc(C[P+](c2ccccc2)(c2ccccc2)c2ccccc2)cc1`: the T/C is 97 % of control (dose: 2.0 mg/kg/injection, schedule: Q01DX015 (ip), vehicle: saline); 100 % of control (dose: 4.0 mg/kg/injection, schedule: Q01DX015 (ip), vehicle: saline); 102 % of control (dose: 5.0 mg/kg/injection, schedule: Q01DX001 (ip), vehicle: saline); 100 % of control (dose: 8.0 mg/kg/injection, schedule: Q01DX015 (ip), vehicle: saline); 104 % of control (dose: 10.0 mg/kg/injection, schedule: Q01DX001 (ip), vehicle: saline); 93 % of control (dose: 20.0 mg/kg/injection, schedule: Q01DX001 (ip), vehicle: saline). Further, the T/C (dose: 40.0 mg/kg/injection, schedule: Q01DX001 (ip), vehicle: saline) was 96 % of control.
